System: MV-4-11 cells
Experiment: Gene expression microarray analysis (Affymetrix PrimeView) and GSEA
Assay type: cell-based, human
Parameters: RFU PODN (11730768_x_at) / Fold change /veh PODN (11730768_x_at) / RFU LINC00158 (11744669_a_at) / Fold change /veh LINC00158 (11744669_a_at) / RFU DUSP10 (11751237_a_at) / Fold change /veh DUSP10 (11751237_a_at) / RFU ID3 (11757404_x_at) / Fold change /veh ID3 (11757404_x_at) / RFU PLEKHG5 (11737974_s_at) / Fold change /veh PLEKHG5 (11737974_s_at) / RFU LRRC4B (11730491_at) / Fold change /veh LRRC4B (11730491_at) / RFU GIMAP4 (11747438_a_at) / Fold change /veh GIMAP4 (11747438_a_at) / RFU KRT8 (11758183_x_at) / Fold change /veh KRT8 (11758183_x_at) / RFU CNN1 (11734310_a_at) / Fold change /veh CNN1 (11734310_a_at) / RFU VPS37D (11726825_at) / Fold change /veh VPS37D (11726825_at) / RFU C10orf10 (11716522_x_at) / Fold change /veh C10orf10 (11716522_x_at) / RFU KIR2DL2 /// KIR2DL4 /// KIR2DL5A /// KIR2DL5B /// KIR2DS1 /// KIR2DS2 /// KIR2DS3 /// KIR2DS4 /// KIR3DL3 /// KIR3DL3 /// KIR3DS1 (11738374_at) / Fold change /veh KIR2DL2 /// KIR2DL4 /// KIR2DL5A /// KIR2DL5B /// KIR2DS1 /// KIR2DS2 /// KIR2DS3 /// KIR2DS4 /// KIR3DL3 /// KIR3DL3 /// KIR3DS1 (11738374_at) / RFU C1QL1 (11718748_at) / Fold change /veh C1QL1 (11718748_at) / RFU TMPRSS4 (11747572_a_at) / Fold change /veh TMPRSS4 (11747572_a_at) / RFU HAMP (11756126_x_at) / Fold change /veh HAMP (11756126_x_at) / RFU RNFT2 (11725882_a_at) / Fold change /veh RNFT2 (11725882_a_at) / RFU NR4A2 (11747474_a_at) / Fold change /veh NR4A2 (11747474_a_at) / RFU ABCC12 (11746883_a_at) / Fold change /veh ABCC12 (11746883_a_at) / RFU TMEM136 (11760407_x_at) / Fold change /veh TMEM136 (11760407_x_at) / RFU CLDN22 /// WWC2 (11732394_at) / Fold change /veh CLDN22 /// WWC2 (11732394_at) / RFU HLA-DPB1 (11760878_x_at) / Fold change /veh HLA-DPB1 (11760878_x_at) / RFU SPINT1 (11716480_a_at) / Fold change /veh SPINT1 (11716480_a_at) / RFU GAP43 (11754022_s_at) / Fold change /veh GAP43 (11754022_s_at) / RFU A4GNT (11735810_at) / Fold change /veh A4GNT (11735810_at) / RFU PRB3 (11715151_x_at) / Fold change /veh PRB3 (11715151_x_at) / RFU TUBB4B (11761932_at) / Fold change /veh TUBB4B (11761932_at) / RFU CAPN14 (11732068_a_at) / Fold change /veh CAPN14 (11732068_a_at) / RFU TMCC2 (11721928_a_at) / Fold change /veh TMCC2 (11721928_a_at) / RFU IRGQ (11745062_a_at) / Fold change /veh IRGQ (11745062_a_at) / RFU FAM174B (11720279_a_at) / Fold change /veh FAM174B (11720279_a_at) / RFU TMPRSS4 (11748680_a_at) / Fold change /veh TMPRSS4 (11748680_a_at) / RFU FAM212B (11763350_a_at) / Fold change /veh FAM212B (11763350_a_at) / RFU PLEKHG5 (11743358_a_at) / Fold change /veh PLEKHG5 (11743358_a_at) / RFU ZSCAN30 (11745921_a_at) / Fold change /veh ZSCAN30 (11745921_a_at) / RFU CMKLR1 (11741424_a_at) / Fold change /veh CMKLR1 (11741424_a_at) / RFU LOC101060620 /// MAPK8IP1 (11723275_at) / Fold change /veh LOC101060620 /// MAPK8IP1 (11723275_at) / RFU SPTSSB (11747773_x_at) / Fold change /veh SPTSSB (11747773_x_at) / RFU PRSS12 (11739890_at) / Fold change /veh PRSS12 (11739890_at) / RFU BIN1 (11741810_x_at) / Fold change /veh BIN1 (11741810_x_at) / RFU WNT11 (11732464_a_at) / Fold change /veh WNT11 (11732464_a_at) / RFU C10orf10 (11716521_a_at) / Fold change /veh C10orf10 (11716521_a_at) / RFU C5orf56 (11738089_at) / Fold change /veh C5orf56 (11738089_at) / RFU CYB561 (11721691_x_at) / Fold change /veh CYB561 (11721691_x_at) / RFU ANKRD19P (11752326_a_at) / Fold change /veh ANKRD19P (11752326_a_at) / RFU OR2T12 /// OR2T33 /// OR2T8 (11738714_s_at) / Fold change /veh OR2T12 /// OR2T33 /// OR2T8 (11738714_s_at) / RFU VCAN (11748164_a_at) / Fold change /veh VCAN (11748164_a_at) / RFU JSRP1 (11732532_at) / Fold change /veh JSRP1 (11732532_at) / RFU KRTAP10-11 (11738290_x_at) / Fold change /veh KRTAP10-11 (11738290_x_at) / RFU MYO3A (11730013_a_at) / Fold change /veh MYO3A (11730013_a_at) / RFU EBF3 (11725865_a_at) / Fold change /veh EBF3 (11725865_a_at) / RFU CAMK2N1 (11719241_x_at) / Fold change /veh CAMK2N1 (11719241_x_at) / RFU C5orf56 (11738088_a_at) / Fold change /veh C5orf56 (11738088_a_at) / RFU OLFML3 (11715873_a_at) / Fold change /veh OLFML3 (11715873_a_at) / RFU LOC100653217 /// NTM (11731650_a_at) / Fold change /veh LOC100653217 /// NTM (11731650_a_at) / RFU MAPK11 (11762145_a_at) / Fold change /veh MAPK11 (11762145_a_at) / RFU FIZ1 (11724087_x_at) / Fold change /veh FIZ1 (11724087_x_at) / RFU OASL (11726364_x_at) / Fold change /veh OASL (11726364_x_at) / RFU SOX15 (11748057_x_at) / Fold change /veh SOX15 (11748057_x_at) / RFU CD79A (11719716_a_at) / Fold change /veh CD79A (11719716_a_at) / RFU HIST1H1D (11736915_at) / Fold change /veh HIST1H1D (11736915_at) / RFU CASKIN2 (11723855_a_at) / Fold change /veh CASKIN2 (11723855_a_at) / RFU LOC730098 (11760151_x_at) / Fold change /veh LOC730098 (11760151_x_at) / RFU OR4N2 (11742367_at) / Fold change /veh OR4N2 (11742367_at) / RFU PRRT2 (11749266_a_at) / Fold change /veh PRRT2 (11749266_a_at) / RFU SNX32 (11753110_a_at) / Fold change /veh SNX32 (11753110_a_at) / RFU CDHR5 (11726645_a_at) / Fold change /veh CDHR5 (11726645_a_at) / RFU RCAN1 (11760418_a_at) / Fold change /veh RCAN1 (11760418_a_at) / RFU FAM167A (11723789_a_at) / Fold change /veh FAM167A (11723789_a_at) / RFU FAM26E (11764081_at) / Fold change /veh FAM26E (11764081_at) / RFU ISYNA1 (11749810_s_at) / Fold change /veh ISYNA1 (11749810_s_at) / RFU ACY1 (11761880_at) / Fold change /veh ACY1 (11761880_at) / RFU 11764098_at / Fold change /veh 11764098_at / RFU SAMD14 (11745864_x_at) / Fold change /veh SAMD14 (11745864_x_at) / RFU NPB (11741838_a_at) / Fold change /veh NPB (11741838_a_at) / RFU TMPRSS6 (11731388_a_at) / Fold change /veh TMPRSS6 (11731388_a_at) / RFU KRTAP10-2 (11738614_at) / Fold change /veh KRTAP10-2 (11738614_at) / RFU ARHGAP8 /// PRR5-ARHGAP8 (11727945_x_at) / Fold change /veh ARHGAP8 /// PRR5-ARHGAP8 (11727945_x_at) / RFU KRTAP5-7 /// NADSYN1 (11734609_at) / Fold change /veh KRTAP5-7 /// NADSYN1 (11734609_at) / RFU RASL12 (11751679_a_at) / Fold change /veh RASL12 (11751679_a_at) / RFU CDKN2B (11736163_a_at) / Fold change /veh CDKN2B (11736163_a_at) / RFU PRF1 (11729649_at) / Fold change /veh PRF1 (11729649_at) / RFU, ZNF638 /// ZNF638-IT1 / Fold change vs veh, ZNF638 /// ZNF638-IT1 / RFU, PANK3 / Fold change vs veh, PANK3 / RFU, SH3YL1 / Fold change vs veh, SH3YL1 / RFU, ZEB2 / Fold change vs veh, ZEB2 / RFU, NRIP1 / Fold change vs veh, NRIP1 / RFU, PTTG1IP / Fold change vs veh, PTTG1IP / RFU, CAPN2 / Fold change vs veh, CAPN2 / RFU, MED14 / Fold change vs veh, MED14 / RFU, SNORA58 / Fold change vs veh, SNORA58 / RFU, C1orf63 / Fold change vs veh, C1orf63 / RFU, LRRFIP1 / Fold change vs veh, LRRFIP1 / RFU, NDUFAF7 / Fold change vs veh, NDUFAF7 / RFU, SLC12A2 / Fold change vs veh, SLC12A2 / RFU, IBTK / Fold change vs veh, IBTK / RFU, ESF1 / Fold change vs veh, ESF1 / Fold change vs veh, TMEM50B / RFU, TAOK1 / Fold change vs veh, TAOK1 / RFU, ACBD3 / Fold change vs veh, ACBD3 / RFU, TMA16 / Fold change vs veh, TMA16 / RFU, RWDD3 / Fold change vs veh, RWDD3 / RFU, BCAT1 / Fold change vs veh, BCAT1 / RFU, EDEM3 / Fold change vs veh, EDEM3 / RFU, TMEM33 / Fold change vs veh, TMEM33 / RFU, WDR75 / Fold change vs veh, WDR75 / RFU, AHCTF1 / Fold change vs veh, AHCTF1 / RFU, TFRC / Fold change vs veh, TFRC / RFU, ZDHHC17 / Fold change vs veh, ZDHHC17 / RFU, NOM1 / Fold change vs veh, NOM1 / RFU, ARL8B / Fold change vs veh, ARL8B / RFU, ZBTB11 / Fold change vs veh, ZBTB11 / RFU, TAMM41 / Fold change vs veh, TAMM41 / RFU, KIAA1704 /// LOC100996395 / Fold change vs veh, KIAA1704 /// LOC100996395 / RFU, ING1 / Fold change vs veh, ING1 / RFU, TRMT61B / Fold change vs veh, TRMT61B / RFU, FUBP3 / Fold change vs veh, FUBP3 / RFU, TP53 / Fold change vs veh, TP53 / RFU, TNKS2 / Fold change vs veh, TNKS2 / RFU, ZFP14 / Fold change vs veh, ZFP14 / RFU, ACTR2 / Fold change vs veh, ACTR2 / RFU, PPP3R1 / Fold change vs veh, PPP3R1 / RFU, PIK3R1 / Fold change vs veh, PIK3R1 / RFU, HNRNPA1 / Fold change vs veh, HNRNPA1 / RFU, RNF170 / Fold change vs veh, RNF170 / RFU, ZNF28 / Fold change vs veh, ZNF28 / RFU, RNGTT / Fold change vs veh, RNGTT / RFU, OGT / Fold change vs veh, OGT / RFU, BRD1 / Fold change vs veh, BRD1 / RFU, MARS / Fold change vs veh, MARS / RFU, ZNF655 / Fold change vs veh, ZNF655 / RFU, FAHD1 / Fold change vs veh, FAHD1 / RFU, BDP1 / Fold change vs veh, BDP1 / RFU, LRRCC1 / Fold change vs veh, LRRCC1 / RFU, ARID1A / Fold change vs veh, ARID1A / RFU, ZNF146 / Fold change vs veh, ZNF146 / RFU, ZNF330 / Fold change vs veh, ZNF330 / RFU, GPN3 / Fold change vs veh, GPN3 / RFU, C9orf123 / Fold change vs veh, C9orf123 / RFU, N4BP2L2 / Fold change vs veh, N4BP2L2 / RFU, ARFIP1 / Fold change vs veh, ARFIP1 / RFU, FAM179B / Fold change vs veh, FAM179B / RFU, BCL10 / Fold change vs veh, BCL10 / RFU, UHRF1BP1L / Fold change vs veh, UHRF1BP1L / RFU, BET1 / Fold change vs veh, BET1 / RFU, CNOT2 / Fold change vs veh, CNOT2 / RFU, ZNF268 / Fold change vs veh, ZNF268 / Fold change vs veh, ZNF507 / RFU, DGCR2 / Fold change vs veh, DGCR2 / RFU, WDSUB1 / Fold change vs veh, WDSUB1 / Fold change vs veh, HSP90B1 /// MIR3652 / RFU, ADSS / Fold change vs veh, ADSS / RFU, GK / Fold change vs veh, GK / RFU, ZNF148 / Fold change vs veh, ZNF148 / RFU, TAF9 / Fold change vs veh, TAF9 / RFU, SLC1A5 / Fold change vs veh, SLC1A5 / RFU, SLMO2 / Fold change vs veh, SLMO2 / RFU, ABCC4 / Fold change vs veh, ABCC4 / RFU, LOC101060439 /// RAP1B / Fold change vs veh, LOC101060439 /// RAP1B / RFU, RFX7 / Fold change vs veh, RFX7 / RFU, GTPBP10 / Fold change vs veh, GTPBP10 / RFU, CNEP1R1 / Fold change vs veh, CNEP1R1 / RFU, BIVM-ERCC5 /// ERCC5 / Fold change vs veh, BIVM-ERCC5 /// ERCC5 / RFU, ILF3 / Fold change vs veh, ILF3 / RFU 11762660_at / Fold change /veh 11762660_at / RFU VCAN (11757783_s_at) / Fold change /veh VCAN (11757783_s_at) / RFU DDX43 (11728927_at) / Fold change /veh DDX43 (11728927_at) / RFU KRT8 (11758188_x_at) / Fold change /veh KRT8 (11758188_x_at) / RFU NKD1 (11759106_at) / Fold change /veh NKD1 (11759106_at) / RFU SRD5A1 (11742802_a_at) / Fold change /veh SRD5A1 (11742802_a_at) / RFU TPSAB1 /// TPSB2 (11721975_s_at) / Fold change /veh TPSAB1 /// TPSB2 (11721975_s_at) / RFU GSTM3 (11746129_a_at) / Fold change /veh GSTM3 (11746129_a_at) / RFU IL23R (11737362_x_at) / Fold change /veh IL23R (11737362_x_at) / RFU TMEM51 (11727254_a_at) / Fold change /veh TMEM51 (11727254_a_at) / RFU PIWIL2 (11732686_x_at) / Fold change /veh PIWIL2 (11732686_x_at) / RFU ORM1 (11744905_x_at) / Fold change /veh ORM1 (11744905_x_at) / RFU CCDC152 (11743942_at) / Fold change /veh CCDC152 (11743942_at) / RFU ECM1 (11717891_a_at) / Fold change /veh ECM1 (11717891_a_at) / RFU IL23R (11748794_a_at) / Fold change /veh IL23R (11748794_a_at) / RFU TNFAIP8L3 (11732012_x_at) / Fold change /veh TNFAIP8L3 (11732012_x_at) / RFU MBOAT4 (11741988_at) / Fold change /veh MBOAT4 (11741988_at) / RFU 11764193_at / Fold change /veh 11764193_at / RFU TMEM53 (11763286_at) / Fold change /veh TMEM53 (11763286_at) / RFU MAGEB2 (11727129_at) / Fold change /veh MAGEB2 (11727129_at) / RFU TMEM200A (11744735_a_at) / Fold change /veh TMEM200A (11744735_a_at) / RFU CCDC152 (11751479_a_at) / Fold change /veh CCDC152 (11751479_a_at) / RFU FAM211A (11726209_a_at) / Fold change /veh FAM211A (11726209_a_at) / RFU RGS16 (11746705_a_at) / Fold change /veh RGS16 (11746705_a_at) / RFU VCAN (11755009_s_at) / Fold change /veh VCAN (11755009_s_at) / RFU RHOB (11743442_s_at) / Fold change /veh RHOB (11743442_s_at) / RFU RGS16 (11720943_a_at) / Fold change /veh RGS16 (11720943_a_at) / RFU RGS16 (11720944_at) / Fold change /veh RGS16 (11720944_at) / RFU, VPS4B / Fold change vs veh, VPS4B / RFU, CREB1 / Fold change vs veh, CREB1 / RFU, DNAJC13 / Fold change vs veh, DNAJC13 / RFU, GNAQ / Fold change vs veh, GNAQ / RFU, CDK5R1 / Fold change vs veh, CDK5R1 / RFU, ZRANB3 / Fold change vs veh, ZRANB3 / RFU, CUL4A / Fold change vs veh, CUL4A / RFU, CCNY / Fold change vs veh, CCNY / RFU, UFL1 / Fold change vs veh, UFL1 / RFU, COG3 / Fold change vs veh, COG3 / RFU, DIAPH2 / Fold change vs veh, DIAPH2 / RFU, SKA2 / Fold change vs veh, SKA2 / RFU, AFF3 / Fold change vs veh, AFF3 / RFU, LMF1 / Fold change vs veh, LMF1 / RFU, IPO11 / Fold change vs veh, IPO11 / RFU, DFFB / Fold change vs veh, DFFB / RFU, FOXP1 / Fold change vs veh, FOXP1 / RFU, CARD8 / Fold change vs veh, CARD8 / RFU, STRN3 / Fold change vs veh, STRN3 / RFU, ADK / Fold change vs veh, ADK / RFU, RASSF2 / Fold change vs veh, RASSF2 / RFU, WIPF1 / Fold change vs veh, WIPF1 / RFU, LARP1B / Fold change vs veh, LARP1B / RFU, RASA1 / Fold change vs veh, RASA1 / RFU, RB1 / Fold change vs veh, RB1 / RFU, PPFIA1 / Fold change vs veh, PPFIA1 / RFU, MAT2A / Fold change vs veh, MAT2A / RFU, CCT5 / Fold change vs veh, CCT5 / RFU, WDR92 / Fold change vs veh, WDR92 / RFU, CUX1 / Fold change vs veh, CUX1 / RFU, TTC7A / Fold change vs veh, TTC7A / RFU, TMEM135 / Fold change vs veh, TMEM135 / RFU, DEPTOR / Fold change vs veh, DEPTOR / RFU, CPM / Fold change vs veh, CPM / RFU, DNAJB6 / Fold change vs veh, DNAJB6 / RFU, CACNA2D3 / Fold change vs veh, CACNA2D3 / RFU, DTX4 / Fold change vs veh, DTX4 / RFU, TFCP2 / Fold change vs veh, TFCP2 / RFU, GMCL1 /// GMCL1P1 / Fold change vs veh, GMCL1 /// GMCL1P1 / RFU, AEBP2 / Fold change vs veh, AEBP2 / RFU, SNHG1 /// SNORD22 /// SNORD25 /// SNORD26 /// SNORD27 /// SNORD28 /// SNORD29 /// SNORD31 / Fold change vs veh, SNHG1 /// SNORD22 /// SNORD25 /// SNORD26 /// SNORD27 /// SNORD28 /// SNORD29 /// SNORD31 / Fold change (Aza/veh), C12orf56 (ProbeSet 11735607_a_at) / Fold change (ACY-1035/veh), C12orf56 (ProbeSet 11735607_a_at) / Fold change (Aza/veh), FGFR1OP (ProbeSet 11751329_s_at) / Fold change (ACY-1035/veh), FGFR1OP (ProbeSet 11751329_s_at) / Fold change (Aza/veh), VPS36 (ProbeSet 11739960_a_at) / Fold change (ACY-1035/veh), VPS36 (ProbeSet 11739960_a_at) / RFU SYPL1 (11715823_x_at) / Fold change /veh SYPL1 (11715823_x_at) / RFU IGFBP7 (11715501_s_at) / Fold change /veh IGFBP7 (11715501_s_at) / RFU REEP3 (11722064_at) / Fold change /veh REEP3 (11722064_at) / RFU IGLL1 (11728026_x_at) / Fold change /veh IGLL1 (11728026_x_at): dose or concentration left out as unconfirmed
Settings: MV-4-11 cells, 48 hours

SMILES: Nc1ccc(-c2cccs2)cc1NC(=O)c1ccc2c(c1)cc(C1CC1)n2CCN1CCOCC1 [ACY-1035]
- Fold change /veh KIR2DL2 /// KIR2DL4 /// KIR2DL5A /// KIR2DL5B /// KIR2DS1 /// KIR2DS2 /// KIR2DS3 /// KIR2DS4 /// KIR3DL3 /// KIR3DL3 /// KIR3DS1 (11738374_at): 0.96

From publication PMC5218480 (PLoS ONE, 2017)
